Data reported in patent US20220305012A1, “L[…] TREATING SLEEP ISSUES” (EISAI R&D MANAGEMENT CO., LTD., priority 2019, published 2022).

System: Subjects Having Insomnia Disorder
Assay: Example 1: subjective sleep efficiency (sSE), Sleep Diary
Type: in vivo, human
Text: As used herein, the term “subjective sleep efficiency”, abbreviated as “sSE”, means the proportion of sTST per subjective time spent in bed, calculated as the interval from the time the subject reports attempting to sleep until the time the subject stopped trying to sleep for the night (operationalized as the time the subject got out of bed for the day), and time spent asleep derived from subjective time spent in bed minus sWASO. As used herein, an “improvement of sleep efficiency in Subjective Sleep Efficiency (sSE)” means an increase in sleep efficiency in Subjective Sleep Efficiency (sSE).
In some embodiments, sleep diaries were used to assess sleep parameters reported by subjects (i.e., subjective assessments) including subjective sleep onset latency (sSOL), subjective sleep efficiency (sSE), subjective WASO (sWASO), and subjective total sleep time (sTST). Subjects were instructed to complete the Sleep Diary developed based on the consensus Sleep Diary as described in Carney et al., “The consensus sleep diary: standardizing prospective sleep self-monitoring,” Sleep 2012; 35(2):287-302. In some embodiments, the Sleep Diary was used to assess the subject's global perception of quality of sleep on the previous night with the following question: “How would you rate the quality of your sleep last night?” Subjects rated the quality of their sleep on a scale from 1 to 9, with 1 being extremely poor and 9 being extremely good. In some embodiments, the Sleep Diary was used to assess subjective ratings of morning sleepiness with the following question: “How alert/sleepy do you feel this morning?” Subjects rated their sleepiness/alertness level on a Likert scale from 1 to 9, with 1 being extremely sleepy and 9 being extremely alert.
sSE—subjective sleep efficiency: proportion of sTST per subjective time spent in bed, calculated as the interval from the time the subject reports attempting to sleep until the time the subject stopped trying to sleep for the night (operationalized as the time the subject got out of bed for the day), and time spent asleep derived from subjective time in bed minus sWASO.
Subjects were randomized in a double-blind manner and received either placebo, 5 mg of lemborexant, or 10 mg of lemborexant (approximately 1:1:1 randomization). All subjects underwent routine safety monitoring through the study, including assessments of treatment-emergent adverse events, 12-lead electrocardiograms, vital signs, weight, and clinical hematology and blood chemistry labs. Suicidality was assessed using the eC-SSRS.
Treatment period 1 began with the first dose of randomized study medication (placebo, 5 mg of lemborexant, or 10 mg of lemborexant). Subjects completed sleep diaries daily in the morning, within one hour of waketime. The subjects were assessed by a clinician one month, two months, three months, and six months after initiation of Treatment period 1. The following assessments were conducted:
This study had two key secondary endpoints. The first key secondary endpoint was the mean change from study baseline in subjective sleep efficiency at month 6. The second key secondary endpoint was the mean change from study baseline of subjective wake after sleep onset at month 6.

With `Cc1ncc(OC[C@@]2(c3cccc(F)c3)C[C@H]2C(=O)Nc2ccc(F)cn2)c(C)n1` [Lemborexant, (1R,2S)-2-(((2,4-dimethylpyrimidin-5-yl)oxy)methyl)-2-(3-fluorophenyl)-N-(5-fluoropyridin-2-yl)cyclopropanecarboxamide] the “subjective sleep efficiency compared with placebo” value (5 mg and 10 mg, at the equivalent timepoint (Table 3)) was “greater increase in subjective sleep efficiency than subjects treated with placebo”, the “sSE, Mean” value (5 mg, First 7 Nights) was 69.97% and the “sSE, Median” value (5 mg, First 7 Nights) was 74.62%. The “sSE, Mean” value (5 mg, Month 1) was 71.56%, the “sSE, Median” value (5 mg, Month 1) was 76.35% and the “sSE, Mean” value (5 mg, Month 3) was 77.29%. The “sSE, Median” value (5 mg, Month 3) was 81.32%, the “sSE, Mean” value (5 mg, Month 6) was 78.55% and the “sSE, Median” value (5 mg, Month 6) was 82.02%. The “sSE, Mean” value (5 mg, Study Baseline) was 63.14%, the “sSE, Median” value (5 mg, Study Baseline) was 67.00% and the “sSE Change from Study Baseline, Mean” value (5 mg, after 1 Month) was 7.87%. The “sSE Change from Study Baseline, Median” value (5 mg, after 1 Month) was 6.75%, the “sSE Change from Study Baseline, Mean” value (5 mg, after 3 Months) was 13.03% and the “sSE Change from Study Baseline, Median” value (5 mg, after 3 Months) was 11.63%. For the same compound, the “sSE Change from Study Baseline, Mean” value (5 mg, after 6 Months) was 15.34%, the “sSE Change from Study Baseline, Median” value (5 mg, after 6 Months) was 13.33% and the “sSE Change from Study Baseline, Mean” value (5 mg, after 7 Nights) was 6.61%. The “sSE Change from Study Baseline, Median” value (5 mg, after 7 Nights) was 5.45%, the “sSE LSM treatment difference: Lemborexant-Placebo” value (“sSE LSM treatment difference” for short) (5 mg, change from Study Baseline after 1 Month) was 2.227% and the “sSE LSM treatment difference” value (5 mg, change from Study Baseline after 3 Months) was 4.222%. For the same compound, the “sSE LSM treatment difference” value (5 mg, change from Study Baseline after 6 Months) was 4.549%, the “sSE LSM treatment difference” value (5 mg, change from Study Baseline after 7 Nights) was 4.299% and the “sSE, Mean” value (10 mg, First 7 Nights) was 69.96%. The “sSE, Median” value (10 mg, First 7 Nights) was 71.85%, the “sSE, Mean” value (10 mg, Month 1) was 71.04% and the “sSE, Median” value (10 mg, Month 1) was 74.70%. For the same compound, the “sSE, Mean” value (10 mg, Month 3) was 75.15%, the “sSE, Median” value (10 mg, Month 3) was 78.30% and the “sSE, Mean” value (10 mg, Month 6) was 76.53%. The “sSE, Median” value (10 mg, Month 6) was 80.22%, the “sSE, Mean” value (10 mg, Study Baseline) was 62.03% and the “sSE, Median” value (10 mg, Study Baseline) was 65.05%. For the same compound, the “sSE Change from Study Baseline, Mean” value (10 mg, after 1 Month) was 9.92%, the “sSE Change from Study Baseline, Median” value (10 mg, after 1 Month) was 9.00% and the “sSE Change from Study Baseline, Mean” value (10 mg, after 3 Months) was 13.61%. For the same compound, the “sSE Change from Study Baseline, Median” value (10 mg, after 3 Months) was 12.62%, the “sSE Change from Study Baseline, Mean” value (10 mg, after 6 Months) was 15.55% and the “sSE Change from Study Baseline, Median” value (10 mg, after 6 Months) was 13.91%. For the same compound, the “sSE Change from Study Baseline, Mean” value (10 mg, after 7 Nights) was 8.27%, the “sSE Change from Study Baseline, Median” value (10 mg, after 7 Nights) was 7.17% and the “sSE LSM treatment difference” value (10 mg, change from Study Baseline after 1 Month) was 3.615%. The “sSE LSM treatment difference” value (10 mg, change from Study Baseline after 3 Months) was 4.361%, the “sSE LSM treatment difference” value (10 mg, change from Study Baseline after 6 Months) was 4.667% and the “sSE LSM treatment difference” value (10 mg, change from Study Baseline after 7 Nights) was 5.793%.
